Molecular target: T1, Human MGAT-2 (Homo sapiens, UniProt Q3SYC2)
T1 construct: made in house; host or cells: Sf9 cells (membrane preparation)
Assay: MGAT LCMS Assay
Assay type: biochemical
Conditions: human MGAT2 membranes expressed in Sf9 cells; 100 μM 2-oleoylglycerol, 15 μM oleoyl-coenzyme A; read-out: h-MGAT LCMS IC50
Outline: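 Robotic enzyme reaction shaken 10 min, quenched with ice-cold methanol containing 1 μg/mL 1,2-distearoyl-rac-glycerol internal standard. Diolein product measured by LC/MS (C8 column, 65° C, APCI(+) triple quad). IC50 derived from diolein/internal standard peak area ratio.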

T1 sequence (Q3SYC2 whole entry): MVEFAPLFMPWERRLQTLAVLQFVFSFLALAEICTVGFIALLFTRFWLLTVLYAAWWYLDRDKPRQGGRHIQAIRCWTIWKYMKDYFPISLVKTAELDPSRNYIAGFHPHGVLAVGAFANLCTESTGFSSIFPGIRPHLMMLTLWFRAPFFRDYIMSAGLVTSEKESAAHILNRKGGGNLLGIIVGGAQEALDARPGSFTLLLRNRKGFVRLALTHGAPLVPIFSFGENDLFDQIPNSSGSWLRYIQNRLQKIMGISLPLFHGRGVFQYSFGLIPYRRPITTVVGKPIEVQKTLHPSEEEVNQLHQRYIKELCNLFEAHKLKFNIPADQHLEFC

Row | Compound | IC50
1 | CCOc1ccc(NC(=O)c2c(-c3ccc(C(C)(C)C)cc3)cc(-c3ccc(OCCCC(F)(F)F)cc3)[nH]c2=O)cc1 [Example 45, 4-(4-(tert-Butyl)phenyl)-N-(4-ethoxyphenyl)-2-oxo-6-(4-(4,4,4-trifluorobutoxy)phenyl)-1,2-dihydropyridine-3-carboxamide] | 9 nM
2 | CCOc1ccc(NC(=O)c2c(-c3cnc(N(C)C)s3)cc(C3(F)CCCCC3)[nH]c2=O)cc1 [Example 10, 4-(2-(Dimethylamino)thiazol-5-yl)-N-(4-ethoxyphenyl)-6-(1-fluorocyclohexyl)-2-oxo-1,2-dihydropyridine-3-carboxamide] | 17 nM
3 | CCc1ccc(-c2cc(-c3ccc(OCCCC(F)(F)F)cc3F)[nH]c(=O)c2-n2nn[nH]c2=O)s1 [Example 152, 4-(5-Ethylthiophen-2-yl)-6-(2-fluoro-4-(4,4,4-trifluorobutoxy)phenyl)-3-(5-oxo-4,5-dihydro-1H-tetrazol-1-yl)pyridin-2(1H)-one] | 23 nM
4 | CCOc1ccc(NC(=O)c2c(-c3ccc(C)cc3)c(C)c(-c3ccc(OCCCC(F)(F)F)cc3)[nH]c2=O)cc1 [Example 24, N-(4-Ethoxyphenyl)-5-methyl-2-oxo-4-(p-tolyl)-6-(4-(4,4,4-trifluorobutoxy)phenyl)-1,2-dihydropyridine-3-carboxamide] | 39 nM
5 | CC(C)(C)c1ccc(-c2cc(-c3ccc(OCCCC(F)(F)F)cc3)[nH]c(=O)c2C(=O)O)cc1 [Example 11, 4-(4-(tert-Butyl)phenyl)-2-oxo-6-(4-(4,4,4-trifluorobutoxy)phenyl)-1,2-dihydropyridine-3-carboxylic acid] | 461 nM
6 | C=Cc1c(-c2ccc(CCCCC)cc2)[nH]c(=O)c(C(=O)Nc2ccc(OCC)cc2)c1-c1ccc(C)cc1 [Example 26, N-(4-Ethoxyphenyl)-2-oxo-6-(4-pentylphenyl)-4-(p-tolyl)-5-vinyl-1,2-dihydropyridine-3-carboxamide] | 82 nM
7 | CCc1ccc(-c2cc(-c3ccc(OCCCC(F)(F)F)cc3F)[nH]c(=O)c2-c2nn[nH]n2)s1 [Example 20, 4-(5-Ethylthiophen-2-yl)-6-(2-fluoro-4-(4,4,4-trifluorobutoxy)phenyl)-3-(2H-tetrazol-5-yl)pyridin-2(1H)-one] | 5 nM
8 | CCCCCc1ccc(-c2cc(-c3ccc(C)cc3)c(C(=O)Nc3ccccc3)c(=O)[nH]2)cc1 [Example 33, 2-Oxo-6-(4-pentylphenyl)-N-phenyl-4-(p-tolyl)-1,2-dihydropyridine-3-carboxamide] | 218 nM
9 | Cc1ccc(-c2cc(-c3ccc(OCCCC(F)(F)F)cc3F)[nH]c(=O)c2C(=O)Nc2ccc(OC(F)(F)F)cc2)cc1 [Example 122, 6-(2-Fluoro-4-(4,4,4-trifluorobutoxy)phenyl)-2-oxo-4-(p-tolyl)-N-(4-(trifluorormethoxy)phenyl)-1,2-dihydropyridine-3-carboxamide] | 27 nM
10 | COc1ccc(NC(=O)c2c(-c3ccc(C)cc3)c(F)c(-c3ccc(OCCCC(F)(F)F)cc3)[nH]c2=O)cc1 [Example 3, 5-Fluoro-N-(4-methoxyphenyl)-2-oxo-4-(p-tolyl)-6-(4-(4,4,4-trifluorobutoxy)phenyl)-1,2-dihydropyridine-3-carboxamide] | 19 nM
11 | CCOc1ccc(NC(=O)c2c(-c3ccc(C)cc3)cc(C3CCCC3)[nH]c2=O)cc1 [Example 29, 6-Cyclopentyl-N-(4-ethoxyphenyl)-2-oxo-4-(p-tolyl)-1,2-dihydropyridine-3-carboxamide] | 144 nM
12 | Cc1ccc(-c2cc(C3CCCCC3)[nH]c(=O)c2C(=O)Nc2cccnc2)cc1 [Example 37, 6-Cyclohexyl-2-oxo-N-(pyridin-3-yl)-4-(p-tolyl)-1,2-dihydropyridine-3-carboxamide] | 543 nM
13 | CCCCCc1ccc(-c2cc(-c3ccc(C)cc3)c(C(=O)Nc3ccc(OCC)cc3)c(=O)[nH]2)cc1 [Example 27, N-(4-Ethoxyphenyl)-2-oxo-6-(4-pentylphenyl)-4-(p-tolyl)-1,2-dihydropyridine-3-carboxamide] | 86 nM

Other lines, results leading:

Row | IC50 | Compound
14 | 4 nM | O=c1[nH]c(-c2ccc(OCCCCCC(F)(F)F)cc2F)cc(-c2ccc(C(F)F)cc2)c1-c1nnn[nH]1 [Example 130, 4-(4-(Difluoromethyl)phenyl)-6-(2-fluoro-4-((6,6,6-trifluorohexyl)oxy)phenyl)-3-(1H-tetrazol-5-yl)pyridin-2(1H)-one]
15 | 1 nM | CCc1ccc(-c2cc(-c3ccc(OCCCCCC(F)(F)F)cc3)[nH]c(=O)c2C(=O)NS(=O)(=O)C2CC2)s1 [Example 84, N-(Cyclopropylsulfonyl)-4-(5-ethylthiophen-2-yl)-2-oxo-6-(4-((6,6,6-trifluorohexyl)oxy)phenyl)-1,2-dihydropyridine-3-carboxamide]
16 | 6 nM | CN(C)c1ccc(-c2cc(-c3ccc(OCCCCCC(F)(F)F)cc3)[nH]c(=O)c2-c2nnn[nH]2)cc1 [Example 59, 4-(4-(Dimethylamino)phenyl)-3-(1H-tetrazol-5-yl)-6-(4-((6,6,6-trifluorohexyl)oxy)phenyl)pyridin-2(1H)-one]
17 | 61 nM | CC(C)n1ccc(-c2cc(-c3ccc(OCCCCCC(F)(F)F)cc3)[nH]c(=O)c2-c2nn[nH]n2)n1 [Example 66]
18 | 172 nM | COc1ccc(-c2cc(-c3ccc(OCCCCCC(F)(F)F)cc3)[nH]c(=O)c2C(=O)NS(=O)(=O)C2CC2)cc1 [Example 65]
19 | 220 nM | Cc1ccc(-c2cc(-c3ccc(C4=CCCCCC4)cc3)[nH]c(=O)c2-c2nnn[nH]2)cc1 [Example 69, 6-(4-(Cyclohept-1-en-1-yl)phenyl)-3-(1H-tetrazol-5-yl)-4-(p-tolyl)pyridin-2(1H)-one]
20 | 373 nM | O=c1[nH]c(-c2ccc(OCCCCCC(F)(F)F)cc2F)cc(-c2ccn(CC3CC3)n2)c1-n1nn[nH]c1=O [Example 168, 4-[1-(Cyclopropylmethyl)-1H-pyrazol-3-yl]-6-{2-fluoro-4-[(6,6,6-trifluorohexyl)oxy]phenyl}-3-(5-oxo-4,5-dihydro-1H-1,2,3,4-tetrazol-1-yl)-1,2-dihydropyridin-2-one]
21 | 7 nM | Cc1ccc(-c2cc(-c3ccc(OCCCCCC(F)(F)F)cc3Cl)[nH]c(=O)c2C(=O)Nc2ccc(OC(F)(F)F)cc2)cc1 [Example 131, 6-(2-Chloro-4-((6,6,6-trifluorohexyl)oxy)phenyl)-2-oxo-4-(p-tolyl)-Ar-(4-(trifluoromethoxy)phenyl)-1,2-dihydropyridine-3-carboxamide]
22 | 129 nM | CCOc1cc(OCCCCCC(F)(F)F)ccc1-c1cc(-c2ccc(C3CC3)cc2)c(-c2nnn[nH]2)c(=O)[nH]1 [Example 124, 4-(4-Cyclopropylphenyl)-6-(2-ethoxy-4-((6,6,6-trifIuorohexyl)oxy)phenyl)-3-(1H-tetrazol-5-yl)pyridin-2(1H)-one]
23 | 10 nM | CCc1ccc(-c2cc(-c3ccc(CCC4CC4)cc3)[nH]c(=O)c2-c2nn[nH]n2)s1 [Example 145, 6-(4-(2-Cyclopropylethyl)phenyl)-4-(5-ethylthiophen-2-yl)-3-(2H-tetrazol-5-yl)pyridin-2(1H)-one]
24 | 43 nM | O=c1[nH]c(-c2ccc(OCCCCCC(F)(F)F)cc2)cc(-c2ccn(CC3CC3)n2)c1-c1nnn[nH]1 [Example 110, 4-(1-(Cyclopropylmethyl)-1H-pyrazol-3-yl)-3-(1H-tetrazol-5-yl)-6-(4-((6,6,6-trifluorohexyl)oxy)phenyl)pyridin-2(1H)-one]
25 | 143 nM | CCc1ccc(-c2cc(-c3ccc(OCCCCCC(F)(F)F)cc3)[nH]c(=O)c2-n2nn[nH]c2=O)s1 [Example 156, 4-(5-Ethylthiophen-2-yl)-3-(5-oxo-4,5-dihydro-1H-1,2,3,4-tetrazol-1-yl)-6-{4-[(6,6,6-trifluorohexyl)oxy]phenyl}-1,2-dihydropyridin-2-one]
26 | 17 nM | O=C(NS(=O)(=O)C1CC1)c1c(-c2ccc(CC3CC3)cc2)cc(-c2ccc(OCCCCCC(F)(F)F)cc2)[nH]c1=O [Example 63, 4-(4-(Cyclopropylmethyl)phenyl)-N-(cyclopropylsulfonyl)-2-oxo-6-(4-((6,6,6-trifluorohexyl)oxy)phenyl)-1,2-dihydropyridine-3-carboxamide]
27 | 76 nM | CCc1ccc(-c2cc(-c3ccc(C4CCC(C)(C)CC4)cc3)[nH]c(=O)c2-c2nn[nH]n2)s1 [Example 161, 6-[4-(4,4-Dimethylcyclohexyl)phenyl]-4-(5-ethylthiophen-2-yl)-3-(2H-1,2,3,4-tetrazol-5-yl)-1,2-dihydropyridin-2-one]
28 | 12 nM | O=C(NS(=O)(=O)C1CC1)c1c(-c2ccn(CC3CC3)n2)cc(-c2ccc(OCCCCCC(F)(F)F)cc2C(F)(F)F)[nH]c1=O [Example 160, N-(Cyclopropanesulfonyl)-4-[1-(cyclopropylmethyl)-1H-pyrazol-3-yl]-2-oxo-6-{4-[(6,6,6-trifluorohexyl)oxy]-2-(trifluoromethyl)phenyl}-1,2-dihydropyridine-3-carboxamide]
29 | 3 nM | C/C=C/c1c(-c2ccc(CCCCC)cc2)[nH]c(=O)c(C(=O)Nc2ccc(OCC)cc2)c1-c1ccc(C)cc1 [Example 52]
30 | 19 nM | O=C(Nc1ccc(OC(F)(F)F)cc1)c1c(-c2ccn(CC3CC3)n2)cc(-c2ccc(OCCCCCC(F)(F)F)cc2F)[nH]c1=O [Example 118, 4-(1-(Cyclopropylmethyl)-1H-pyrazol-3-yl)-6-(2-fluoro-4-((6,6,6-trifluorohexyl)oxy)phenyl)-2-oxo-N-(4-(trifluoromethoxy)phenyl)-1,2-dihydropyridine-3-carboxamide]
31 | 3 nM | O=c1[nH]c(-c2ccc(OCCCCCC(F)(F)F)cc2C(F)(F)F)cc(-c2ccn(CC3CC3)n2)c1-c1nn[nH]n1 [Example 155, 4-[1-(Cyclopropylmethyl)-1H-pyrazol-3-yl]-3-(2H-1,2,3,4-tetrazol-5-yl)-6-{4-[(6,6,6-trifluorohexyl)oxy]-2-(trifluoromethyl)phenyl}-1,2-dihydropyridin-2-one]
32 | 139 nM | Cc1ccc(-c2cc(-c3ccc(CCC4CC4)cc3)[nH]c(=O)c2-c2nnn[nH]2)cc1 [Example 61, 6-(4-(2-Cyclopropylethyl)phenyl)-3-(1H-tetrazol-5-yl)-4-(p-tolyl)pyridin-2(1H)-one]

Source: patent US9974778B2, “Substituted pyridinones as MGAT2 inhibitors” (BRISTOL-MYERS SQUIBB COMPANY, priority 2014, dated 2018)
